Measured values: patent publication US20250026766A1, “Thiazolopyridyl Amide Derivatives as DNA Polymerase Theta Inhibitors” (BeiGene, Ltd., priority 2022, published 2025)

Target: Pol Theta (1-894) (Homo sapiens (Human), UniProt O75417)
Assay: Biochemical Pol Theta (1-894) ATPase IC50 assay (ADP-Glo, ssDNA substrate)
Conditions: ADP-Glo assay with ssDNA substrate, room temperature
Description: Baculovirus Expression of Human POL theta (1-894)
Human POL Theta (1-894)-His-pFastBac1 baculovirus samples were generated using the Bac-to-Bac baculovirus expression system (Invitrogen) according to the manufacturer's protocol. […] Baculovirus amplification was achieved using infected SF9 cells at 1:2000 virus/cells ratios, and grown for 96 hours at 27° C. post-transfection. The expression scaled up for each protein was carried out in the flask 3 L from CORNING. 4 L of 3×10^6 cells/mL Sf9 cells (Expression System, Invitrogen) grown in SF900TM II SFM insect medium (Expression System) were infected with virus stock at 1:200 virus/cell ratios, and grown for 48 hours at 27° C. post-transfection. The infected cell culture was harvested by centrifugation at 6000 rpm for 15 min 4° C. in a SORVALL LYNX6000 centrifuge. The cell pellets were stored at −80° C.
The human POL Theta (1-894)-His produced as described above, were purified from Sf9 baculovirus-infected insect cell paste. The cells were lysed using sonication method, and the lysates were clarified by centrifugation.
Enzymatic reactions of Pol Theta (1-894) were performed using ADP-Glo assay with ssDNA substrate. Pol Theta (1-894) was expressed in baculovirus expression system. The inhibition activities testing for the compound disclosed herein were carried out at room temperature in assay buffer containing 40 mM Tris pH 7.5, 20 mM MgCl2, 1 mM DTT, 0.01% BSA and 0.05% Tween-20. Compounds in DMSO were dispensed into wells of a black 384 well plate (Corning 4514) using D300e digital dispenser (Tecan). The ranges of compounds final concentration were 2.62 nM˜10000 nM. 3 μL 2× enzyme solution containing 12.5 nM enzyme was added to wells. […] After 1 hour reaction, 5 μL ADP-Glo reagent (Promga V9102) was added and incubated for 40 minutes. 10 μL Kinase Detection reagent was added and incubated for 40 minutes. Luminescence was measured on a microplate reader (PHERAstar FSX, BMG labtech). The IC50 values were calculated based on inhibition of enzyme activity in the presence of increasing concentrations of compounds.

Chain of Pol Theta (1-894) (O75417 1-894): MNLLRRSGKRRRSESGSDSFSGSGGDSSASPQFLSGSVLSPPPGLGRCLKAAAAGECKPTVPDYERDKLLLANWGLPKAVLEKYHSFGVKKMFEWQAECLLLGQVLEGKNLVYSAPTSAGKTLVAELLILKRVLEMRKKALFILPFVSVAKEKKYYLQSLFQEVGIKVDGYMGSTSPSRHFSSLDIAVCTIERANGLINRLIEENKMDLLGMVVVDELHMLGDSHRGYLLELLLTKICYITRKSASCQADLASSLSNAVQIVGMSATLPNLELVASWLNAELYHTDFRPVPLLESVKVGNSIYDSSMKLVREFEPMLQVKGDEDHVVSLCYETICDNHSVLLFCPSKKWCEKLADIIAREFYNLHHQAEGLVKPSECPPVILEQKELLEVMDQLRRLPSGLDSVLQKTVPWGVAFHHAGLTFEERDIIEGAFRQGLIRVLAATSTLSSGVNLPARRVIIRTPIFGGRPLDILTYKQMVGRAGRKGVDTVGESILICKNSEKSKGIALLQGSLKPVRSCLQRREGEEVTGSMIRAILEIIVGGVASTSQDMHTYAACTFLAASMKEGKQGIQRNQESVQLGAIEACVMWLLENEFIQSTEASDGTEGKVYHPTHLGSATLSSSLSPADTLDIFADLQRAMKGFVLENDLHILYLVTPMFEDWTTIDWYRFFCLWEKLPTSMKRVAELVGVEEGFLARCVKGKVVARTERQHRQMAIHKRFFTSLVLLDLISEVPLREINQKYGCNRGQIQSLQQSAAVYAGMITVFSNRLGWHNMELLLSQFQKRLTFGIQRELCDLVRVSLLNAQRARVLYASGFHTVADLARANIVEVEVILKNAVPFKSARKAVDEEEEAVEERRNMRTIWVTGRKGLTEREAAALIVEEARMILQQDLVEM

Row | IC50 | Structure (SMILES)
1 | 83 nM | COc1ccccc1-c1cnncc1C(=O)Nc1nc2ccc(-c3ccc(C(=O)N4CCOCC4)cc3)nc2s1 [Example 103, 5-(2-methoxyphenyl)-N-(5-(4-(morpholine-4-carbonyl)phenyl)thiazolo[5,4-b]pyridin-2-yl)pyridazine-4-carboxamide]
2 | 45 nM | COc1ccccc1-c1cnncc1C(=O)Nc1nc2ccc(Cc3ccc(Cl)cc3)nc2s1 [Example 69, N-(5-(4-chlorobenzyl)thiazolo[5,4-b]pyridin-2-yl)-5-(2-methoxyphenyl)pyridazine-4-carboxamide]
3 | 92 nM | COc1ccc(C#N)cc1-c1nc(C#N)ccc1C(=O)Nc1nc2ccc(-c3ccc(Cl)cc3)nc2s1 [Example 7, N-(5-(4-chlorophenyl)thiazolo[5,4-b]pyridin-2-yl)-6-cyano-2-(5-cyano-2-methoxyphenyl)nicotinamide]
4 | 16 nM | CCOc1ccc(C#N)cc1-c1cc(C)ncc1C(=O)Nc1nc2ccc(-c3ccc(C#N)cc3)nc2s1 [Example 105, 4-(5-cyano-2-ethoxyphenyl)-N-(5-(4-cyanophenyl)thiazolo[5,4-b]pyridin-2-yl)-6-methylnicotinamide]
5 | 129 nM | COc1ccccc1-c1cc(C(=O)O)ncc1C(=O)Nc1nc2ccc(-c3ccc(NC(C)=O)cc3)nc2s1 [Example 46, 5-((5-(4-acetamidophenyl)thiazolo[5,4-b]pyridin-2-yl)carbamoyl)-4-(2-methoxyphenyl)picolinic acid]
6 | 32 nM | COc1ccc(C#N)cc1-c1cc(C)ncc1C(=O)Nc1nc2ccc(-c3ccc(N4CCCC4=O)cc3)nc2s1 [Example 45, 4-(5-cyano-2-methoxyphenyl)-6-methyl-N-(5-(4-(2-oxopyrrolidin-1-yl)phenyl)thiazolo[5,4-b]pyridin-2-yl)nicotinamide]
7 | 72 nM | CCOc1ccc2nc(NC(=O)c3cnncc3-c3ccccc3OC)sc2n1 [Example 95, N-(5-ethoxythiazolo[5,4-b]pyridin-2-yl)-5-(2-methoxyphenyl)pyridazine-4-carboxamide]
8 | 28 nM | COc1ccc(C#N)cc1-c1cc(C)ncc1C(=O)Nc1nc2ccc(-c3ccc(N4C(=O)COC4=O)c(C)c3)nc2s1 [Example 163, 4-(5-cyano-2-methoxyphenyl)-N-(5-(4-(2,4-dioxooxazolidin-3-yl)-3-methylphenyl)thiazolo[5,4-b]pyridin-2-yl)-6-methylnicotinamide]
9 | 149 nM | COc1cccc(F)c1-c1nc(C#N)ccc1C(=O)Nc1nc2ccc(-c3ccc(Cl)cc3)nc2s1 [Example 10, N-(5-(4-chlorophenyl)thiazolo[5,4-b]pyridin-2-yl)-6-cyano-2-(2-fluoro-6-methoxyphenyl)nicotinamide]
10 | 22 nM | COc1ccccc1-c1cnncc1C(=O)Nc1nc2ccc(Oc3ccc(Cl)cc3)nc2s1 [Example 98, N-(5-(4-chlorophenoxy)thiazolo[5,4-b]pyridin-2-yl)-5-(2-methoxyphenyl)pyridazine-4-carboxamide]
11 | 9.1 nM | COc1ccc(C#N)cc1-c1cc(CO)ncc1C(=O)Nc1nc2ccc(-c3ccc(C#N)cc3C)nc2s1 [Example 176, 4-(5-cyano-2-methoxyphenyl)-N-(5-(4-cyano-2-methylphenyl)thiazolo[5,4-b]pyridin-2-yl)-6-(hydroxymethyl)nicotinamide]
12 | 27 nM | COCCOc1ccc(-c2ccc3nc(NC(=O)c4cnc(C)cc4-c4cc(C#N)ccc4OC)sc3n2)cc1 [Example 123, 4-(5-cyano-2-methoxyphenyl)-N-(5-(4-(2-methoxyethoxy)phenyl)thiazolo[5,4-b]pyridin-2-yl)-6-methylnicotinamide]
13 | 54 nM | COc1ccccc1-c1cnncc1C(=O)Nc1nc2ccc(C(=O)c3ccc(Cl)cc3)nc2s1 [Example 137, N-(5-(4-chlorobenzoyl)thiazolo[5,4-b]pyridin-2-yl)-5-(2-methoxyphenyl)pyridazine-4-carboxamide]
14 | 186 nM | Cc1cc(-c2ccccc2CO)c(C(=O)Nc2nc3ccc(-c4ccc(C#N)cc4)nc3s2)cn1 [Example 64, N-(5-(4-cyanophenyl)thiazolo[5,4-b]pyridin-2-yl)-4-(2-(hydroxymethyl)phenyl)-6-methylnicotinamide]
15 | 32 nM | COc1c(F)cccc1-c1cc(C)ncc1C(=O)Nc1nc2ccc(-c3ccc(C#N)cc3)nc2s1 [Example 75, N-(5-(4-cyanophenyl)thiazolo[5,4-b]pyridin-2-yl)-4-(3-fluoro-2-methoxyphenyl)-6-methylnicotinamide]
16 | 87 nM | COc1ccc(C#N)cc1-c1cc(C)ncc1C(=O)Nc1nc2ccc(-c3ccc(C(F)(F)F)cc3)nc2s1 [Example 40, 4-(5-cyano-2-methoxyphenyl)-6-methyl-N-(5-(4-(trifluoromethyl)phenyl)thiazolo[5,4-b]pyridin-2-yl)nicotinamide]
17 | 73 nM | COc1ccc(C#N)cc1-c1cc(C)ncc1C(=O)Nc1nc2ccc(-c3ccc(C(=O)N4CCC4)c(C)c3)nc2s1 [Example 151, N-(5-(4-(azetidine-1-carbonyl)-3-methylphenyl)thiazolo[5,4-b]pyridin-2-yl)-4-(5-cyano-2-methoxyphenyl)-6-methylnicotinamide]
18 | 12 nM | COc1ccccc1-c1cnncc1C(=O)Nc1nc2ccc(-c3ccc(Cl)c4nn(C)cc34)nc2s1 [Example 126, N-(5-(7-chloro-2-methyl-2H-indazol-4-yl)thiazolo[5,4-b]pyridin-2-yl)-5-(2-methoxyphenyl)pyridazine-4-carboxamide]
19 | 70 nM | Cc1cc(-c2cc(S(C)(=O)=O)ccc2C2CC2)c(C(=O)Nc2nc3ccc(-c4ccc(C#N)cc4)nc3s2)cn1 [Example 157, N-(5-(4-cyanophenyl)thiazolo[5,4-b]pyridin-2-yl)-4-(2-cyclopropyl-5-(methylsulfonyl)phenyl)-6-methylnicotinamide]
20 | 15 nM | CNC(=O)c1ccc(-c2ccc3nc(NC(=O)c4cnncc4-c4ccccc4OC)sc3n2)c(C)c1 [Example 134, 5-(2-methoxyphenyl)-N-(5-(2-methyl-4-(methylcarbamoyl)phenyl)thiazolo[5,4-b]pyridin-2-yl)pyridazine-4-carboxamide]
21 | 10 nM | COc1ccc(C#N)cc1-c1cc(C)ncc1C(=O)Nc1nc2ccc(-c3ccc(CC#N)cc3C)nc2s1 [Example 172, 4-(5-cyano-2-methoxyphenyl)-N-(5-(4-(cyanomethyl)-2-methylphenyl)thiazolo[5,4-b]pyridin-2-yl)-6-methylnicotinamide]
22 | 64 nM | Cc1cc(-c2ccc(=O)n(C)c2)c(C(=O)Nc2nc3ccc(-c4ccc(C#N)cc4)nc3s2)cn1 [Example 54, N-(5-(4-cyanophenyl)thiazolo[5,4-b]pyridin-2-yl)-1,6′-dimethyl-6-oxo-1,6-dihydro-[3,4′-bipyridine]-3′-carboxamide]
23 | 63 nM | COc1ccccc1-c1cnncc1C(=O)Nc1nc2ccc(Oc3ccc(S(C)(=O)=O)cc3)nc2s1 [Example 160, 5-(2-methoxyphenyl)-N-(5-(4-(methylsulfonyl)phenoxy)thiazolo[5,4-b]pyridin-2-yl)pyridazine-4-carboxamide]
24 | 14 nM | COc1ccc(C#N)cc1-c1cc(C)ncc1C(=O)Nc1nc2ccc(-c3ccc(OCCO)cc3)nc2s1 [Example 122, 4-(5-cyano-2-methoxyphenyl)-N-(5-(4-(2-hydroxyethoxy)phenyl)thiazolo[5,4-b]pyridin-2-yl)-6-methylnicotinamide]
25 | 8.2 nM | COc1ccccc1-c1cnncc1C(=O)Nc1nc2ccc(-c3ccc(NC(C)=O)cc3)nc2s1 [Example 16, N-(5-(4-acetamidophenyl)thiazolo[5,4-b]pyridin-2-yl)-5-(2-methoxyphenyl)pyridazine-4-carboxamide]
26 | 29 nM | COc1ccccc1-c1cnncc1C(=O)Nc1nc2ccc(-c3ccc(Cl)cc3F)nc2s1 [Example 100, N-(5-(4-chloro-2-fluorophenyl)thiazolo[5,4-b]pyridin-2-yl)-5-(2-methoxyphenyl)pyridazine-4-carboxamide]
27 | 347 nM | N#Cc1ccc(C(=O)Nc2nc3ccc(-c4ccc(Cl)cc4)nc3s2)c(N2CCOCC2)n1 [Example 1, N-(5-(4-chlorophenyl)thiazolo[5,4-b]pyridin-2-yl)-6-cyano-2-morpholinonicotinamide]
28 | 4.7 nM | COc1ccc(C#N)cc1-c1cc(CO)ncc1C(=O)Nc1nc2ccc(-c3ccc(C#N)cc3)nc2s1 [Example 109, 4-(5-cyano-2-methoxyphenyl)-N-(5-(4-cyanophenyl)thiazolo[5,4-b]pyridin-2-yl)-6-(hydroxymethyl)nicotinamide]
29 | 5.2 nM | COc1cc(C#N)ccc1-c1ccc2nc(NC(=O)c3cnncc3-c3ccccc3OC)sc2n1 [Example 119, N-(5-(4-cyano-2-methoxyphenyl)thiazolo[5,4-b]pyridin-2-yl)-5-(2-methoxyphenyl)pyridazine-4-carboxamide]
